In paper PMC8802628, “Selective activation of PFKL suppresses the phagocytic oxidative burst” (Cell, 2021):

Experiments:
[1] = test system: PMNs; experiment: LC-MS of glycolysis and pentose phosphate pathway metabolites; assay type: cell-based, human
Experimental: Neutrophils (1 × 10^7) were untreated or pretreated with 0.5 μM NA-11 for 25 min, and then activated with 50 nM PMA for 30 min. Cell were washed twice in D-PBS and frozen in liquid nitrogen. Metabolites were extracted following protein precipitation using 500 μL cold (−80°C) MeOH:H2O (8:2, V:V) mixture. Aliquots (250 μL) were evaporated and reconstituted with 75 μL of MeOH:H2O (8:2, V:V) containing a series of stable isotope labeled internal standards. LC-MS analysis was performed on a Shimadzu Nexera HPLC series system (Shimadzu, Kyoto, Japan) couple with a Thermo Q Exactive Plus Hybrid Quadrupole-Orbitrap Mass Spectrometer (Thermo Fisher Scientific, Waltham, MA, USA). A Phenomenex Luna NH2 HPLC column (100 Å, 250 mm × 2 mm × 3 μm, Phenomenex, Torrance, CA, USA) was used to separate the analytes of interest. Samples (5 μL) were analyzed under Heated Electrospray Ionization (HESI) in negative mode with a flow rate of 0.4 mL/min and a total run time of 50 min. The mobile phases consisted of (A) 20 mM ammonium hydroxide and 20 mM ammonium acetate in H2O and (B) acetonitrile. The gradient was 0 min, 85% B; 0.5 min, 85% B; 15 min, 0% B; 38 min, 0% B; 40 min, 85% B; 50 min, 85% B. The autosampler temperature was 4°C, and the column temperature was 40°C. The Q Exactive Plus Mass Spectrometer parameters were: sheath gas flow rate, 50 units; aux gas flow rate, 13 units; aux gas temperature, 425°C; capillary temperature, 263°C; spray voltage, −2500 V; scan mode, full MS; scan range, 60-900 m/z; resolution, 70,000; AGC target, 3 × 10^6; maximum IT, 200 ms. Data was processed with TraceFinder (Thermo Fisher Scientific, Waltham, MA, USA). %RSDs of a series of stable isotope-labeled internal standards were calculated to check system suitability and data robustness. Relative MS peak area ratio (Peak Area of Analyte / Peak Area of Internal Standard) was used for compound quantification. […] Pyruvate concentration was quantified using a calibration curve of chemical standard (with stable isotope labeled internal standard, Pyruvate-^13C3) in the surrogate matrix.

[2] = test system: PMNs; experiment: Phagocytosis of zymosan particles by PMNs; assay type: cell-based, human; conditions: neutrophils, zymosan 2 h
Experimental: Figure S7. NA-11 activates PFKL to prevent the oxidative burst and impair neutrophil defenses, related to Figures 4 and 6
(A) PFK1 activity in PMN lysates. Cells were pretreated with 0.5 mM NA-11, 5 mM LDC7559, 100 mM apocynin, 200 mM thionicotinamid e (TN), 1 mM MEK inhibitor U0126, or DMSO vehicle for 30 min, or 1 mM proteasome inhibitor bortezomib for 1 h, and then activated with 50 nM PMA for 30 min where indicated. Bars represent the mean ± s.d. of cells from 3 donors. (B) NADH:NAD+ ratio in PMA-activated PMNs. Cells were pretreated with 0.5 mM NA-11 or DMSO vehicle for 30 min, and then activated with 50 nM PMA for 30 min. Data are the mean ± s.d. of cells from 3 donors. (C) Immunolabeling of citrullinated histone H3 (magenta) and myeloperoxidase (red) in PMNs pretreated with 0.5 mM NA-11 or DMSO vehicle for 30 min and then stimulated for 4 h with 50 nM PMA, 10 mg/mL extracellular LPS, 0.5 mg/mL cholesterol crystals, or 25 mM nigericin. Chromatin is stained green. Scale bar, […]. Results are representative of 3 independent experiments.
(D) Fluorescence micrographs of PMNs pretreated with 0.5 mM NA-11, 200 mM thionicotinamide (TN), 0.5 mM NA-4, or DMSO vehicle for 30 min, and then incubated with serum-opsonized Texas Red-conjugated zymosan particles (10 mg/mL) for 2 h. […]

[3] = test system: MEK or ERK; experiment: PMA-induced MEK/ERK activation in neutrophils (western blot); assay type: cell-based, human
Experimental: Figure S3. Chemoproteomic analysis of covalent crosslinking using photolabeling probe PALP1, related to Figure 2
(A) Volcano plots of the fold change in peptides detected after afﬁnity pull-downs using PALP1 and PALP6. P values were calculated by Student’s t test across
three replicates. (B and C) Spectral counts of all PFKL (B) or TBB4B (C) peptides across replicates (left) or with individual peptides distinguished by color (right). (D)
Activity of recombinant NAMPT. Bars represent the mean ± s.d. of 3 independent experiments. (E) western blots of PMNs pretreated with 0.5 mM NA-11 or 1 mM
MEK1/2 inhibitor U0126 for 30 min, and then activated with 50 nM PMA for 30 min. Results are representative of 3 independent experiments.
(1 picture or pasted object on this page, not shown here)

[4] = molecular target: T1, GSDMD (Homo sapiens, UniProt P57764); experiment: Recombinant GSDMD cleavage by caspase-4; assay type: biochemical; conditions: 10 μM
T1 sequence (P57764 1-484): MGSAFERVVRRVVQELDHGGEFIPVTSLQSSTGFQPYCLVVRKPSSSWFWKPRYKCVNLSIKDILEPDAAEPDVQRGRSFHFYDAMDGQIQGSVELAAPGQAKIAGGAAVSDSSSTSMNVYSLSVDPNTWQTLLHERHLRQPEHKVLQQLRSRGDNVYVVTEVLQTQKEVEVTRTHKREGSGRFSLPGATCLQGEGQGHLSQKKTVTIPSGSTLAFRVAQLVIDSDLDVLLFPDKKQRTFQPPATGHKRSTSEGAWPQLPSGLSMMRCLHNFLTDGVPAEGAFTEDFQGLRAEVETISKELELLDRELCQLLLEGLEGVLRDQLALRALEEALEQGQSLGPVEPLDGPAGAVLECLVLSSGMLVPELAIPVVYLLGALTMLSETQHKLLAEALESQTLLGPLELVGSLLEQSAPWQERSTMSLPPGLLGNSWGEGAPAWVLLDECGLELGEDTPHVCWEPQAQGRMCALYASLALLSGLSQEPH
Experimental: 1 μg recombinant GSDMD ([Aglietti et al., 2016]) was incubated with 10 μM LDC7559, 30 μM zVAD-fmk, or DMSO vehicle for 20 min, and then combined with 0.15 μg recombinant caspase-4 (750 mU; Abcam) in 20 μL of 50 mM HEPES, pH 7.2, 50 mM NaCl, 0.1% Chaps, 10 mM EDTA and 5% glycerol for 30 min at 37°C.

[5] = in the context of PMA activation

Row | Structure (SMILES) | levels of FBP ([1]; compound alone, no PMA) | glycolysis metabolites (FBP, DHAP, G-3-P) [1, 5] | pentose phosphate pathway metabolites [1, 5] | phagocytosis (intracellular zymosan particles) [2] | PMA-induced activation of MEK or ERK [3] | cleavage of recombinant GSDMD by caspase-4 [4]
1 | CC(=O)Nc1ccc2c(c1)OCc1cc(-c3ccccc3C#CCCCO)nn1C2 [NA-11] | slightly increased levels of FBP | increased glycolysis metabolites | maintained pentose phosphate pathway metabolites at baseline levels | neither NA-11 nor TN affected phagocytosis | did not perturb PMA-induced activation of MEK or ERK | –
2 | COc1ccccc1-c1cc2n(n1)Cc1ccc(NC(C)=O)cc1OC2 [LDC7559, reference compound] | – | – | – | – | – | did not inhibit cleavage of recombinant GSDMD by caspase-4
